Laboratory results from ChEMBL document CHEMBL1201862, “PubChem BioAssay data set” (2004).
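Exposure lasted 48 hours, with cells grown in 96-well plates and compounds tested at five concentrations. Here, GI50 denotes the concentration required for 50% inhibition of growth.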 Active and inactive are the calls of the source. No stated cut-off is given here; in the data, active = GI50 up to about 1.1 µM and inactive = higher.

Experiments:
Test in all cases: NCI tumour cell line growth inhibition, 48 h
[1] = test system: HCC 2998
[2] = test system: ACHN
[3] = test system: CAKI-1
[4] = test system: UO-31
[5] = test system: PC-3
[6] = test system: UACC-62
[7] = test system: SNB-75
[8] = test system: IGROV-1
[9] = test system: SF-539
[10] = test system: SNB-19
[11] = test system: K562
[12] = test system: HOP-62
[13] = test system: HT-29
[14] = test system: RPMI-8226
[15] = test system: SK-MEL-2
[16] = test system: 786-0
[17] = test system: BT-549
[18] = test system: SF-268
[19] = test system: Hs-578T

With O=C(NNCC(O)COc1ccccc1)c1ccccc1 (centres undefined) the GI50 [1] was > 100 µM (inactive), the GI50 [2] was > 100 µM (inactive) and the GI50 [3] was > 100 µM (inactive). The GI50 [4] was > 100 µM (inactive), the GI50 [5] was > 100 µM (inactive) and the GI50 [6] was > 100 µM (inactive). For the same molecule, the GI50 [7] was > 100 µM (inactive), the GI50 [8] was > 100 µM (inactive) and the GI50 [9] was > 100 µM (inactive). For the same molecule, the GI50 [10] was > 100 µM (inactive), the GI50 [11] was > 100 µM (inactive) and the GI50 [12] was > 100 µM (inactive). The GI50 [13] was > 100 µM (inactive), the GI50 [14] was > 100 µM (inactive) and the GI50 [15] was > 100 µM (inactive). For the same molecule, the GI50 [16] was > 100 µM (inactive).
In the case of CC1(O)/C(=N/O)CC2CC1C2(C)C (centres undefined), the GI50 [1] is reported as > 100 µM (inactive), the GI50 [2] is reported as > 100 µM (inactive) and the GI50 [4] is reported as > 100 µM (inactive). The GI50 [17] was > 100 µM (inactive), the GI50 [6] was > 100 µM (inactive) and the GI50 [7] was > 100 µM (inactive). The GI50 [8] was > 100 µM (inactive), the GI50 [10] was > 100 µM (inactive) and the GI50 [11] was > 100 µM (inactive). For the same molecule, the GI50 [13] was > 100 µM (inactive), the GI50 [18] was > 100 µM (inactive) and the GI50 [14] was > 100 µM (inactive). For the same molecule, the GI50 [15] was > 100 µM (inactive), the GI50 [19] was > 100 µM (inactive) and the GI50 [16] was > 100 µM (inactive).
For COc1ccc2c(c1)C(=O)c1ccc(OC)cc1C2=S, the GI50 [1] was > 100 µM (inactive), the GI50 [2] was > 100 µM (inactive) and the GI50 [4] was > 100 µM (inactive). For the same molecule, the GI50 [6] was 49.1 µM (inactive), the GI50 [7] was 30.3 µM (inactive) and the GI50 [8] was > 100 µM (inactive). For the same molecule, the GI50 [9] was > 100 µM (inactive), the GI50 [10] was > 100 µM (inactive) and the GI50 [11] was > 100 µM (inactive). For the same molecule, the GI50 [12] was > 100 µM (inactive), the GI50 [13] was > 100 µM (inactive) and the GI50 [18] was 81.5 µM (inactive). For the same molecule, the GI50 [14] was > 100 µM (inactive), the GI50 [15] was > 100 µM (inactive) and the GI50 [16] was > 100 µM (inactive).
For O=C1NC2c3c(I)sc(I)c3C(O)C2O1 (centres undefined), the GI50 [1] was > 100 µM (inactive), the GI50 [2] was > 100 µM (inactive) and the GI50 [3] was > 100 µM (inactive). For the same molecule, the GI50 [4] was > 100 µM (inactive), the GI50 [5] was > 100 µM (inactive) and the GI50 [6] was > 100 µM (inactive). For the same molecule, the GI50 [7] was > 100 µM (inactive), the GI50 [8] was > 100 µM (inactive) and the GI50 [9] was > 100 µM (inactive). For the same molecule, the GI50 [10] was > 100 µM (inactive), the GI50 [11] was > 100 µM (inactive) and the GI50 [12] was > 100 µM (inactive). For the same molecule, the GI50 [13] was > 100 µM (inactive), the GI50 [18] was > 100 µM (inactive) and the GI50 [14] was > 100 µM (inactive). For the same molecule, the GI50 [15] was > 100 µM (inactive), the GI50 [19] was > 100 µM (inactive) and the GI50 [16] was > 100 µM (inactive).
COP(=O)(OC)/C(=C\c1cn(C(c2ccccc2)(c2ccccc2)c2ccccc2)cn1)NC(C)=O was tested, and the GI50 [1] was > 100 µM (inactive), the GI50 [2] was > 100 µM (inactive) and the GI50 [3] was > 100 µM (inactive). The GI50 [4] was > 100 µM (inactive), the GI50 [5] was > 100 µM (inactive) and the GI50 [6] was > 100 µM (inactive). The GI50 [7] was > 100 µM (inactive), the GI50 [8] was > 100 µM (inactive) and the GI50 [9] was > 100 µM (inactive). The GI50 [10] was > 100 µM (inactive), the GI50 [11] was 51.8 µM (inactive) and the GI50 [12] was > 100 µM (inactive). The GI50 [13] was 68.5 µM (inactive), the GI50 [18] was > 100 µM (inactive) and the GI50 [19] was > 100 µM (inactive). The GI50 [16] was > 100 µM (inactive).
CCCNc1ncnc2c1ncn2C was tested, and the GI50 [1] was 78.7 µM (inactive), the GI50 [2] was 51.6 µM (inactive) and the GI50 [3] was 36.1 µM (inactive). The GI50 [4] was 85.1 µM (inactive), the GI50 [5] was > 100 µM (inactive) and the GI50 [6] was 45.1 µM (inactive). For the same molecule, the GI50 [7] was 38.5 µM (inactive), the GI50 [8] was 54.7 µM (inactive) and the GI50 [9] was 34.2 µM (inactive). For the same molecule, the GI50 [10] was > 100 µM (inactive), the GI50 [11] was 53.1 µM (inactive) and the GI50 [12] was 35.2 µM (inactive). The GI50 [14] was 20.6 µM (inactive), the GI50 [15] was > 100 µM (inactive) and the GI50 [16] was 48.8 µM (inactive).
In the case of C/C(=N/NC(=S)Nc1ccccc1Cl)c1cccc(/C(C)=N\NC(=S)Nc2ccccc2Cl)n1, the GI50 [1] is reported as > 100 µM (inactive), the GI50 [2] is reported as 55.5 µM (inactive) and the GI50 [3] is reported as > 100 µM (inactive). The GI50 [4] was 44 µM (inactive), the GI50 [5] was 36.1 µM (inactive) and the GI50 [6] was > 100 µM (inactive). For the same molecule, the GI50 [7] was > 100 µM (inactive), the GI50 [8] was 42.2 µM (inactive) and the GI50 [9] was 16.6 µM (inactive). The GI50 [10] was 82.4 µM (inactive), the GI50 [11] was 18.7 µM (inactive) and the GI50 [12] was > 100 µM (inactive). The GI50 [13] was > 100 µM (inactive), the GI50 [18] was > 100 µM (inactive) and the GI50 [14] was > 100 µM (inactive). For the same molecule, the GI50 [15] was > 100 µM (inactive), the GI50 [19] was > 100 µM (inactive) and the GI50 [16] was 7.33 µM (inactive).
With Br[C@@H]1[C@H]2c3nc4ccccc4nc3[C@@H]1C[C@H]2Br the GI50 [1] was > 100 µM (inactive), the GI50 [2] was > 100 µM (inactive) and the GI50 [3] was > 100 µM (inactive). The GI50 [4] was 41.4 µM (inactive), the GI50 [17] was 65.5 µM (inactive) and the GI50 [5] was 68.4 µM (inactive). For the same molecule, the GI50 [6] was > 100 µM (inactive), the GI50 [8] was > 100 µM (inactive) and the GI50 [10] was > 100 µM (inactive). For the same molecule, the GI50 [11] was 47.5 µM (inactive), the GI50 [12] was > 100 µM (inactive) and the GI50 [13] was 58.6 µM (inactive). For the same molecule, the GI50 [18] was > 100 µM (inactive), the GI50 [19] was > 100 µM (inactive) and the GI50 [16] was > 100 µM (inactive).
With Nc1ncnc2c1ncn2C1CCC(CP(=O)(O)O)C1 (centres undefined) the GI50 [1] was > 100 µM (inactive), the GI50 [2] was > 100 µM (inactive) and the GI50 [4] was > 100 µM (inactive). For the same molecule, the GI50 [5] was > 100 µM (inactive), the GI50 [6] was > 100 µM (inactive) and the GI50 [8] was > 100 µM (inactive). The GI50 [9] was > 100 µM (inactive), the GI50 [10] was > 100 µM (inactive) and the GI50 [12] was > 100 µM (inactive). For the same molecule, the GI50 [13] was > 100 µM (inactive), the GI50 [18] was > 100 µM (inactive) and the GI50 [14] was > 100 µM (inactive). The GI50 [15] was > 100 µM (inactive), the GI50 [19] was > 100 µM (inactive) and the GI50 [16] was > 100 µM (inactive).
In the case of O=C(NC1CCCCC1)N1CCNC1=S, the GI50 [1] is reported as > 100 µM (inactive), the GI50 [2] is reported as > 100 µM (inactive) and the GI50 [3] is reported as > 100 µM (inactive). The GI50 [4] was > 100 µM (inactive), the GI50 [17] was 66.4 µM (inactive) and the GI50 [7] was > 100 µM (inactive). For the same molecule, the GI50 [8] was > 100 µM (inactive), the GI50 [9] was 65.6 µM (inactive) and the GI50 [11] was > 100 µM (inactive). For the same molecule, the GI50 [12] was > 100 µM (inactive), the GI50 [13] was > 100 µM (inactive) and the GI50 [18] was > 100 µM (inactive). For the same molecule, the GI50 [14] was 65.6 µM (inactive), the GI50 [15] was 2.94 µM (inactive) and the GI50 [19] was > 100 µM (inactive). For the same molecule, the GI50 [16] was > 100 µM (inactive).
With Cc1cc2ccccc2c[n+]1CC(=O)CC([O-])(C(F)(F)F)C(F)(F)F the GI50 [1] was > 100 µM (inactive), the GI50 [2] was > 100 µM (inactive) and the GI50 [3] was > 100 µM (inactive). For the same molecule, the GI50 [4] was > 100 µM (inactive), the GI50 [5] was > 100 µM (inactive) and the GI50 [6] was > 100 µM (inactive). The GI50 [7] was > 100 µM (inactive), the GI50 [8] was 41.3 µM (inactive) and the GI50 [9] was > 100 µM (inactive). For the same molecule, the GI50 [10] was > 100 µM (inactive), the GI50 [11] was 72.8 µM (inactive) and the GI50 [12] was > 100 µM (inactive). For the same molecule, the GI50 [13] was 56.6 µM (inactive), the GI50 [18] was > 100 µM (inactive) and the GI50 [14] was 69.7 µM (inactive). For the same molecule, the GI50 [15] was > 100 µM (inactive), the GI50 [19] was > 100 µM (inactive) and the GI50 [16] was > 100 µM (inactive).
For COc1cc2c[n+](C)c3c4cc(OC)c(OC)cc4c(OCc4ccccc4)cc3c2cc1OC, the GI50 [1] was 2.1 µM (inactive), the GI50 [2] was > 69.3 µM (inactive) and the GI50 [3] was > 39.2 µM (inactive). The GI50 [4] was > 100 µM (inactive), the GI50 [17] was 0.32 µM (active) and the GI50 [5] was 0.877 µM (active). For the same molecule, the GI50 [6] was 0.434 µM (active), the GI50 [7] was 0.199 µM (active) and the GI50 [9] was 0.114 µM (active). The GI50 [10] was 0.0681 µM (active), the GI50 [11] was 1.83 µM (inactive) and the GI50 [12] was 1.86 µM (inactive). For the same molecule, the GI50 [13] was 2.28 µM (inactive), the GI50 [18] was 0.0432 µM (active) and the GI50 [14] was 5.28 µM (inactive). The GI50 [15] was 1.63 µM (inactive) and the GI50 [16] was 0.634 µM (active).
